Reference: PubChem BioAssay AID179 (DTP/NCI, 2004)
Active and inactive are the calls of the source.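 Rule for the calls: active = compounds giving half or more protection of infected cells from virus-caused growth loss, again on retest; inactive = the rest.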

Test system: CEM cells HIV-1 protection, formazan growth assay
Test: NCI AIDS Antiviral Assay
Conditions: for IC50: measured here: growth of uninfected CEM cells
Summary of the method: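 CEM (human) cells, HIV-1 infected vs uninfected, 5-point dosing, formazan growth read-out. Retest threshold 50% protection.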

Work on `COc1cc2c(cc1OC)C(=O)Cc1ccc3c(c1CNCC2)OCO3` yielded an EC50 greater than 141 µM and an IC50 greater than 141 µM.
`Cc1cccc(C)c1NC(=S)NNC(=O)NNC(=S)Nc1c(C)cccc1C` gave an EC50 greater than 200 µM and an IC50 greater than 200 µM.
With `N#CC1(C2CC(=O)N(c3ccccc3)C2=O)CCCCC1=O` (stereo not drawn) the outcome was “inactive”.
For `CC(=O)c1cc2ccccc2n(O)c1=N`, the EC50 was greater than 200 µM and the IC50 was greater than 200 µM.
`N#Cc1c(N2CCOCC2)ncn(-c2ccc(Cl)cc2)c1=O` was tested, and the EC50 was greater than 200 µM and the IC50 was greater than 200 µM.
Work on `CCn1nc(C(=O)O)c(=O)c2cc3c(cc21)OCO3` yielded an EC50 greater than 200 µM and an IC50 greater than 200 µM.
In the case of `O=C1Oc2ccccc2CC1C(=O)c1ccc(Cl)cc1` (stereo not drawn), the EC50 is reported as greater than 18.2 µM and the IC50 is reported as greater than 18.2 µM.
Compound `CC(C)(CCCCC(C)(C)NC1=NCCO1)NC1=NCCO1` has an EC50 greater than 200 µM and an IC50 of 77.6 µM.
With `CC(=O)N(C)n1cn[n+](CC(=O)OC(C)(C)C)c1` the EC50 was greater than 200 µM and the IC50 was greater than 200 µM.
`CC12CCC(=O)[C@@]1(C)CCCC2=O` (stereo partly drawn) was tested, and the outcome was “inactive”.
`OC(CC(O)(C(F)(F)F)C(F)(F)F)c1ccc(C(O)CC(O)(C(F)(F)F)C(F)(F)F)cc1` (stereo not drawn) gave an EC50 greater than 200 µM and an IC50 of 10.2 µM.
Compound `C[N+](C)(C)CC(=O)N/N=C(/Cc1cc(=O)oc2cc(O)ccc12)C(=O)Nc1ccc(Cl)cc1` has an EC50 greater than 51.3 µM and an IC50 greater than 51.3 µM.
`COc1cccc(-c2nc(-c3cnccn3)n(COCCO)n2)c1` gave an EC50 greater than 200 µM and an IC50 greater than 200 µM.
Work on `O=C(Nc1ccc(Cl)cc1)NS(=O)(=O)c1coc2cc(F)ccc2c1=O` yielded an EC50 greater than 200 µM and an IC50 of 63.1 µM.
With `CSCCC(NP(=S)(c1ccccc1)c1ccccc1)C(=O)O` (stereo not drawn) the EC50 was greater than 200 µM and the IC50 was greater than 200 µM.
Work on `Brc1ccc(N=NN2CCCCC2)cc1` yielded an EC50 greater than 200 µM and an IC50 of 18.6 µM.
With `CCC1(N)COC(c2ccccc2)OC1` (stereo not drawn) the EC50 was greater than 200 µM and the IC50 was greater than 200 µM.
Compound `COC(=O)CCC1(C)C2CCC1/C(=N/O)C2` (stereo not drawn) has an EC50 greater than 200 µM and an IC50 greater than 200 µM.
Work on `CO/C(=N\N=C\c1ccccc1F)c1ccncc1` yielded an EC50 greater than 141 µM and an IC50 greater than 141 µM.
Work on `O=c1[nH]c2nccn2c(Cl)c1Br` yielded an EC50 greater than 200 µM and an IC50 of 33.9 µM.
`Cc1[nH]n(-c2ncc(C(=O)O)c(=O)[nH]2)c(=O)c1CCO` was tested, and the EC50 was greater than 200 µM and the IC50 was greater than 200 µM.
In the case of `COc1ccc(/C=C/C(=O)c2c(OC)cc(OC)c(OC)c2O)cc1`, the outcome is reported as “inactive”.
`Cn1cc2ccccc2c1-c1nc(F)nc(Nc2ccc(N)cc2)n1` showed an EC50 greater than 15.5 µM and an IC50 of 7.94 µM.
With `Cn1c(-c2cccs2)cc(-c2ccccc2)c1-c1cccs1` the EC50 was greater than 200 µM and the IC50 was greater than 200 µM.
`COc1ccc(N2C(=Nc3ccccc3)SC(=N/S(=O)(=O)c3ccccc3)/C2=N\S(=O)(=O)c2ccccc2)cc1` gave an EC50 greater than 200 µM and an IC50 of 11.7 µM.
With `CCO/C(O)=c1/s/c(=C2/SC(=S)N(c3ccc(C)cc3)C2=O)n(-c2ccccc2)c1=N` the EC50 was greater than 1.58 µM and the IC50 was greater than 1.58 µM.
In the case of `CCOC(=O)C(C(=O)OCC)C1(c2ccccc2)OC(=O)c2ccccc21` (stereo not drawn), the outcome is reported as “inactive”.
For `FC(F)(Sc1ccccn1)c1nc2ccccc2o1`, the EC50 was 14.8 µM and the IC50 was 89.1 µM.
`COc1ccc(CC2Cc3ccccc3CC(=O)N2)cc1OC` (stereo not drawn) was tested, and the EC50 was greater than 200 µM and the IC50 was 17.8 µM.
`CCOC(=O)c1nc2cc(Cl)ccc2[nH]c1=O` showed an EC50 greater than 200 µM and an IC50 of 105 µM.
`O=C(Nc1nc2ccccc2n1Cc1ccc(Cl)cc1)C(=O)NC12CC3CC(CC(C3)C1)C2` gave an EC50 greater than 21.4 µM and an IC50 greater than 21.4 µM.
